{
  "source": "patent US20040038888A1",
  "about": "(priority 2002, published 2004)",
  "key": {"[1]": {"tested_on": "mouse adult neural stem cells", "assay": "Intracellular ATP assay, adult mouse NSC, non-adherent culture", "assay_type": "cell-based", "method": "The anterior lateral wall of the lateral ventricle of 5-6 week old mice was enzymatically dissociated in 0.8 mg/ml hyaluronidase and 0.5 mg/ml trypsin in DMEM containing 4.5 mg/ml glucose and 80 units/ml DNase at 37° C. for 20 min. The cells were gently triturated and mixed with three volumes of Neurosphere medium (DMEM/F12, B27 supplement, 12.5 mM HEPES pH7.4) containing 20 ng/ml EGF (unless otherwise stated), 100 units/ml penicillin and 100μg/ml streptomycin. After passing through a 70 μm strainer, the cells were pelleted at 160×g for 5 min. The supernatant was subsequently removed and the cells resuspended in Neurosphere medium supplemented as above, plated out in culture dishes and incubated at 37° C. Neurospheres were ready to be split approximately 7 days after plating.\nTo split neurosphere cultures, neurospheres were collected by centrifugation at 160×g for 5 min. The neurospheres were resuspended in 0.5 ml Trypsin/EDTA in HBSS (1×), incubated at 37° C. for 2 min and triturated gently to aid dissociation. Following a further 3 min incubation at 37° C. and trituration, 3 volumes of ice cold NSPH-media-EGF were added to stop further trypsin activity. The cells were pelleted at 220×g for 4 min, resuspended in fresh Neurosphere medium supplemented with 20 ng/ml EGF and 1 nM bFGF plated out and incubated at 37° C.\nMouse neurospheres, cultured as described above, from passage 2, were seeded in DMEM/F12 supplemented with B27 into a 96-well plate as single cells (10000 cells/well) to the substances to be measured were added at the concentrations indicated. After 3 days incubation, intracellular ATP was measured using the ATP-SL kit from BioThema, Sweden, according to the manufacturer's instructions. PACAP and VIP were purchased from Bachem. Maxadilan was a kind gift from Richard G Titus, Dept Microbiology, Immunology and Pathology, College of Veterinary Medicine and Biological Sciences, Colorado State University.\nIn experiments where signalling pathways were examined, cells were seeded as single cells as mentioned above. PACAP, 100 nM, was co incubated with 10 uM PKA inhibitor H89 (Alexis-Biochemicals) or 1 uM PLC inhibitor U73122 (Alexis-Biochemicals) or 1 uM of the PKC inhibitor Gö6976 (Sigma-Aldrich). Cells were incubated for 4 days before measurements of ATP.\nIn the experiment analysing the combinatory effect of PACAP and EGF, PACAP at 100 nM was co-incubated with 3 nM EGF for 3 days."}, "hippocampal neurogenesis": {"tested_on": "hippocampal neurogenesis", "assay": "PACAP/BrdU infusion, BrdU/NeuN co-labelling of the dentate gyrus", "assay_type": "in vivo, mouse", "conditions": "600 nM pump concentration, 0.5 μl/hr, 7 days infusion plus 10 days survival, relative to vehicle", "method": "10 week old male mice (C57B1/2), maintained on a 12 hr light/dark cycle with food and water ad libidum, were infused in the right lateral ventricle with PACAP38 (Bachem), using a Alzet pump (1007D), for 3,5 days or 7 days at a daily dose of 31 ng/day (600 nM PACAP pump concentration infused at a rate of 0.5 μl/hr). Bromodeoxyuridine (BrdU) (50 mg/ml) was also included in the infusion vehicle (0.9% saline containing 1 mg/ml mouse serum albumin (Sigma)) to enable measurement of proliferation by quantitation of BrdU incorporation in the DNA. The group of infused with either PACAP/BrdU or vehicle/BrdU for 3,5 days and sacrificed at this time point. The group infused with either PACAP/BrdU or vehicle/BrdU for 7 days were allowed to survive a further 10 days. After the allotted time the mice were sacrificed, perfused with PBS the brains removed and frozen at −70° C. prior to sectioning for immumohistochemical analysis.\nThe procedure for doubling labeling of BrdU with NeuN was performed sequentially. […]\nFor all BrdU/NeuN co-labelling experiments, one to two sections per animal were analysed. […] The number of BrdU/NeuN-labelled cells per area of dentate granule cell layer was counted manually. […] Results of the dentate gyrus BrdU/NeuN counts are expressed as the average number of BrdU/NeuN-positive cells per dentate gyrus for each individual animal and reported as the mean ±SEM."}},
  "data": [
    {"substance": "pituitary adenylate cyclase-activating polypeptide [PACAP]", "values": [
      {"measurement": "intracellular ATP levels", "setting": "[1]; PACAP 100 nM, 4 days, relative to control", "result": "significantly increases intracellular ATP levels"},
      {"measurement": "intracellular ATP levels, and hence NSC number", "setting": "[1]; PACAP 100 nM, EGF 3 nM, alone or combined, 3 days", "result": "increased intracellular ATP levels"},
      {"measurement": "intracellular ATP levels, and hence cell number", "setting": "[1]; varying concentrations, non-adherent conditions, 3 days, relative to control, dose-dependent", "result": "statistically significant increase in intracellular ATP levels"},
      {"measurement": "neurogenesis in the ipsilateral dentate gyrus (BrdU/NeuN positive cells/dentate gyrus)", "setting": "hippocampal neurogenesis", "result": "increase in neurogenesis"}
    ]}
  ]
}
